Assay results reported in patent publication US20060281897A1, “Potentialization of the activation of high molecular weight prodrugs” (priority 2003, published 2006).
pIC50: −log10 of the molar value. Square brackets hold non-standard residues; d marks the D form.

Experiments:
[1] = test system: LS-174T human tumor xenografts; assay: Efficacy study in LS-174T human colon carcinoma xenograft model; settings: for body weight loss: as of the second week of weekly i.v. treatment; for T/C min / specific growth delay (SGD): LS-174T, Suc-beta-ALAL-Dox 50 μmol/kg, PEG2000-(DSer)4-ALAL-Dox 1×50+3×35 μmol/kg, i.v. days 0, 7, 14, 21
Procedure: The experimental chemotherapy studies were carried out on athymic mice that carried LS-174T or HCT 116 (colon carcinomas) tumors of human origin previously grafted subcutaneously.
The mice were selected and distributed into the different groups of the study so as to have equal distributions of tumor volumes. The different treatments were randomly assigned to the groups so formed.
Treatments were administered intravenously in the caudal vein. During these injections, the animals received a constant volume of 10 μl/g of product (Workman et al., 1998). After the injection, the clinical signs were duly followed (each hour during the first day, and daily until the end of the study), as well as the weight that was measured at the same time as the tumor volume (mm^3). The growth of the tumor was monitored 2× per week by measuring, with the aid of a caliper, two perpendicular diameters (or “diagonals”) of the tumor (the largest and the smallest “diagonal”).
To determine the variations of the tumor volume of the different groups, the median of the relative tumor volumes (RTV for “relative tumor volume”) that express in percent the variations of the medians of the tumor volumes relative to day 0 was calculated. To estimate the effect of the various treatments, the inhibition of the growth was determined by calculating the ratio between the median of the RTV of the treated groups (T) and that of control group (C) that is expressed by percentage (T/C(%)).
The lowest value of the T/C ratio was used as a parameter to estimate the maximum efficacy of the products that were evaluated.
The Specific Growth Delay (SGD) was also calculated as (DTtreated−DTcontrol)/(DTcontrol).
For these reasons, growth delays (T-C) and specific growth delays (SGD) were calculated from linear regressions of different phases that characterize the growth of the tumors.
The products were injected intravenously (10 μl/g, 6 mice per group).
The administered doses were reduced starting from day 7.

MCF-7/6 cells = assay: Cytotoxicity test (WST-1 cell viability); type: cell-based, human; settings: read-out: IC50 (50% inhibiting concentration), 48 hours incubation + 24 hours drug-free post-incubation
Procedure: The cytotoxicity tests of doxorubicin and derivatives were carried out with MCF-7/6 cells and LNCaP cells.
The cells were collected by trypsinization, counted, and then inoculated in 96-well plates in 200 μl of serum-containing medium.
The cells were incubated for 24 hours at 37° C. before the addition of the products to be tested:
diluted to various concentrations in the serum-containing culture medium. After an incubation of 48 hours in the presence of various compounds, the cells were finally post-incubated at 37° C. for 24 hours in the presence of drug-free serum-containing medium. After this incubation period, a cell viability test was carried out (WST-1, Roche Molecular Biochemical, Mannheim, Germany).
They were then post-incubated for 24 hours in drug-free serum containing medium. The cytotoxicity of the products was estimated by a cell viability test (WST-1, Roche Molecular Diagnostic, Mannheim, Germany).

[2] = test system: LS-174T human colon cancer xenografts; assay: In vivo tumor reactivation of PEGylated prodrug derivatives (Dox and Leu-Dox accumulated in tumor); settings: i.v. bolus 69 μmol/kg, LS-174T tumor
[3] = test system: HCT-116 human colon carcinoma xenograft; assay: Chemotherapy study in HCT-116 human colon carcinoma xenograft model; type: in vivo, mice
Excerpt: The anti-tumor efficacy of PEG2000-(DSer)4-ALAL-Dox was compared to that of succinyl-βALAL-Dox in an HCT-116 human colon carcinoma xenograft model that was implanted subcutaneously in Swiss nude/nude mice. The animals received 5 i.v. bolus injections (for 5 consecutive days) of succinyl-βALAL-Dox at 30 μmol/kg or PEG2000-(DSer)4-ALAL-Dox at 53 and 110 μmol/kg (6 mice/group). […] The results of FIG. 8 show the variations of the body weight of the animals. […] The anti-tumor efficacy is shown by the T/C curve that comprises two phases (FIG. 9). […] In the second phase, the activity of the PEGylated derivative (110 μmol/kg) decreased relative to that of succinyl-PALAL-Dox. […] The MTD of the PEGylated derivative was not reached in this study.
The anti-tumor efficacy of PEG2000-(DSer)4-ALAL-Dox was compared to that of PEG2000-ALAL-Dox in an HCT-116 human colon carcinoma xenograft model implanted subcutaneously in Swiss nude/nude mice. The animals received 5 i.v. bolus injections (for 5 consecutive days) of the compounds at doses of 200, 300, and 400 μmol/kg (5 mice/group). Contrary to PEG2000-ALAL-Dox, PEG2000-(DSer)4-ALAL-Dox was toxic at 300 and 400 μmol/kg and induced a weight loss and the death of the animals (FIG. 10).

[4] = 37° C.
Procedure: The samples were incubated at 37° C. An extraction (for extraction method with acetonitrile, see Item 7.3 below) of each product was carried out in triplicate at time 0 and after 1, 2, 4 and 6 hours of incubation.
10 μl of internal standard (prolyl-daunorubicin) and […] 150 μl of acetonitrile were added into tubes containing 50 μl of the sample to be extracted. The tubes were stirred and centrifuged for 10 minutes to 13000 g. The supernatant was diluted 4 times in a formate buffer, pH 4, centrifuged, then analyzed by HPLC (see Item 7.3 below).
At different time points, the concentrations of the conjugates and possible metabolites formed were evaluated by HPLC. FIG. 7 illustrates the variations of the concentration of products based on the incubation time.

[5] = 1×50+3×35 μmol/kg vs doxorubicin 6.69 μmol/kg

COc1cccc2c1C(=O)c1c(O)c3c(c(O)c1C2=O)C[C@@](O)(C(=O)CO)C[C@@H]3O[C@H]1C[C@H](N)[C@H](O)[C@H](C)O1 [doxorubicin, reference compound]
body weight loss [1]: no significant weight loss

PEG2000-beta-Ala-Leu-Ala-Leu-doxorubicin [PEG2000-beta-ALAL-Dox]
pIC50 (MCF-7/6 cells): < 3.30

COc1cccc2c1C(=O)c1c(O)c3c(c(O)c1C2=O)CC(O)(C(=O)CO)CC3OC1CC(NC(=O)C(CC(C)C)NC(=O)C(C)NC(=O)C(CC(C)C)NC(=O)CCNC(=O)CCC(=O)O)C(O)C(C)O1 (stereo not drawn) [Suc-beta-ALAL-Dox, succinyl-beta-Ala-Leu-Ala-Leu-doxorubicin, reference compound]
T/C min [1]: 26.6% | specific growth delay (SGD) [1]: 3.02 | body weight loss [1]: slight weight loss | maximum weight loss ([1]; day 32, 45 and 50 μmol/kg groups): 10% | DOX concentration in tumor ([2]; 2 hours after injection): 1.93 nmol/mg | Leu-DOX concentration in tumor ([2]; 2 hours after injection): 4.64 nmol/mg | DOX concentration in tumor ([2]; 72 hours after injection): 5.41 nmol/mg | Leu-DOX concentration in tumor ([2]; 72 hours after injection): 0.05 nmol/mg | body weight loss ([3]; 30 μmol/kg ×5 i.v., end of the study, day 49): about 20%

COc1cccc2c1C(=O)c1c(O)c3c(c(O)c1C2=O)CC(O)(C(=O)CO)CC3OC1CC(NC(=O)C(CC(C)C)NC(=O)C(C)NC(=O)C(CC(C)C)NC(=O)C(C)N)C(O)C(C)O1 (stereo not drawn) [ALAL-Dox, Ala-Leu-Ala-Leu-doxorubicin, reference compound]
stability in blood ([4]; 20 μM in citrated human blood): not stable in blood | starting product degraded in Leu-Dox and Dox ([4]; after 1 hour, whole human blood): 80%

PEG2000-(DSer)4-beta-Ala-Leu-Ala-Leu-doxorubicin [PEG2000-(DSer)4-beta-ALAL-Dox]
pIC50 (MCF-7/6 cells): 3.60

PEG2000-(DSer)4-Ala-Leu-Ala-Leu-doxorubicin (PEG2000-[dS][dS][dS][dS]ALAL-doxorubicin) [PEG2000-(DSer)4-ALAL-Dox]
hydrolysis: Dox formed ([4]; at 6 hours, whole human blood): 5% | hydrolysis: L-Dox (Leu-Dox) formed ([4]; at 6 hours, whole human blood): 5% | activity during the first growth phase [1, 5]: comparable to that of doxorubicin | activity during the second growth phase [1, 5]: more active than doxorubicin and as active as Suc-beta-ALAL-Dox | T/C min [1]: 38% | specific growth delay (SGD) [1]: 1,58 | body weight loss [1]: no significant weight loss | deaths ([1]; initial i.v. bolus at 50 μmol/kg and 45 μmol/kg, 6 mice per group): One death | anti-tumor effect ([3]; 53 μmol/kg ×5 i.v.): induced a tumor regression for the week of treatment | toxicity ([3]; 53 and 110 μmol/kg, 5 i.v. bolus injections): no toxicity | toxicity (weight loss and death of the animals) ([3]; 300 and 400 μmol/kg, 5 i.v. bolus injections on 5 consecutive days): toxic | anti-tumor efficacy ([3]; equimolar non-toxic dose 200 μmol/kg ×5 i.v.): better anti-tumor efficacy than that of PEG2000-ALAL-Dox | maximum tolerated dose (MTD) ([3]; up to 110 μmol/kg ×5 i.v.): not reached
